Tests used:
[1] = biological target: T1, Class III metalloprotease BjussuMP-I (Bothrops jararacussu, UniProt Q1PHZ4); test: proteolytic activity in casein, BjussuMP-I; type: biochemical, B. jararacussu; conditions: ratio of 1:10 protease:inhibitor (m/m)
T1 construct: BjussuMP-I isolated from B. jararacussu; from tissue; host or cells: venom of B. jararacussu
T1 sequence (Q1PHZ4 134-547): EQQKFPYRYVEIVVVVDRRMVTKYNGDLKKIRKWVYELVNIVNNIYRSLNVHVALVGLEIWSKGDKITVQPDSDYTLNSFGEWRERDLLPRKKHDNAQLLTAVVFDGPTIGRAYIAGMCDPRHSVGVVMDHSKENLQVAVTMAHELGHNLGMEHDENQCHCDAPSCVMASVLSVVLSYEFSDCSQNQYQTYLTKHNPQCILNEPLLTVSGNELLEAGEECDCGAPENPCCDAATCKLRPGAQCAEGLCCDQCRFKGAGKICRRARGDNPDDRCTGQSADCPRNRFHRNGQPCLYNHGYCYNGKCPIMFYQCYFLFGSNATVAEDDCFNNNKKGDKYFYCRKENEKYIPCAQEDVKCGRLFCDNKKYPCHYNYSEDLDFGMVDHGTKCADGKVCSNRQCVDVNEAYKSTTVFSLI

[2] = biological target: T2, Asp49 BthTX-II phospholipase A2 (Bothrops jararacussu, UniProt P45881); test: myotoxic activity in mice, BthTX-II; type: in vivo, B. jararacussu
T2 construct: isolated myotoxins (BthTX-I and II); from tissue; host or cells: venom of B. jararacussu
T2 sequence (P45881 17-138): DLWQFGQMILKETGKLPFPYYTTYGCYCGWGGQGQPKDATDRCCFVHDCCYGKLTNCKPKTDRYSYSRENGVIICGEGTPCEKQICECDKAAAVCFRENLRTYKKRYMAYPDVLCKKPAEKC

[3] = biological target: T3, Lys49 BthTX-I phospholipase A2 (Bothrops jararacussu, UniProt Q90249); test: myotoxic activity in mice, BthTX-I; type: in vivo, B. jararacussu
T3 construct: isolated myotoxins (BthTX-I and II); from tissue; host or cells: venom of B. jararacussu
T3 sequence (Q90249 17-137 limits assumed): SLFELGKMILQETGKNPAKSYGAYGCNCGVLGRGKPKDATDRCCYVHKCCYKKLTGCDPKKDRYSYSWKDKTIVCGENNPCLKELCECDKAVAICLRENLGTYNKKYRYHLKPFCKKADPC

SMILES: COc1ccc2[nH]c(CO)cc(=O)c2c1 [Compound 2, 2-hydroxymethyl-6-methoxy-1,4-dihydro-4-quinolinone]
- inhibition of proteolytic activity [1]: ~70%
- effect on myotoxic activity [2]: inhibited
- effect on myotoxic activity [3]: inhibited

Reference: US20100196476A1, “PROCESS FOR THE PREPARATION AND PHARMACEUTICAL FORMULATIONS FOR 4-QUINOLINONES AND QUINOLINES AND USE THEREOF” (FUNDACAO UNIVERSIDADE FEDERAL DE SAO CARLOS, priority 2007, published 2010)
